{"source": "patent US20240148709A1", "about": "“METHODS OF TREATING EYE PAIN AND EYE DISORDERS” (Aisa Pharma, Inc., priority 2022, published 2024)", "system": "participants with SSc-RP", "experiment": "Scleroderma Health Assessment Questionnaire (SHAQ), Phase 2a study Part A", "format": "in vivo, human", "settings": "for % change in Pain (SHAQ): mITT", "experimental": "Part A—double-blind, placebo-controlled, parallel-group, dose selection, will assess the safety and efficacy of two doses of cilnidipine (10 mg and 20 mg), alone and in combination with tadalafil. A total of 36 participants will be randomized to one of six prespecified treatment arms. Refer to FIG. 1 for treatment arms in Part A of the study. Dosing last for 12 (±2) days in which participants will self-administer daily doses of assigned treatment in the morning. Each participant will take one capsule and one tablet to blind the active therapy being received.\nThe standard, validated, patient reported outcome measures tool for SSc patients, the SHAQ, will be collected at the time points specified in the study schedules (FIG. 2 and FIGS. 3A and 3B) to assess the participant's quality of life. The SHAQ includes a Raynaud's VAS that will also be reported separately.\nResults: Patients in the study were administered the Scleroderma Health Assessment Questionnaire (SHAQ) at the time of study entry and during clinic visits following the treatment period. The study is a two-part, parallel arm design, prospective, double-blind, randomized study conducted in Australia (Flinders Medical Center). 27 patients were randomized into the first phase of the study, following which a DSMB meeting was held, which reviewed data on the primary study endpoint and key Raynaud's secondary endpoints. Data on the SHAQ was not available for the DSMB to review. The mITT population, in which any data was available post treatment was 24 patients was the analysis population for this first part of the study. The second part (i.e., part B) of the study will randomize 36 patients in a double blind, randomized, prospective, placebo controlled, crossover study. In the first part (i.e., Part A) of the study for which data is presented, patients were randomized into 6 groups, cilnidipine at two doses (10 and 20 mg) alone and in combination with tadalafil 5 mg, tadalafil 5 mg alone, and placebo. […] The DSMB recommended that the study proceed into its double blind prospective cross overpowered second phase and compare cilnidipine 20 mg alone to placebo.", "key": {"[1]": {"settings": "Pooled Cilnidipine 10 mg or 20 mg (N = 7)"}, "[2]": {"settings": "Pooled Cilnidipine 10 mg or 20 mg (n = 6)"}, "[3]": {"settings": "cilnidipine 10 mg and/or tadalafil 5 mg arms"}}}
{"molecule": "COCCOC(=O)C1=C(C)NC(C)=C(C(=O)OC/C=C/c2ccccc2)C1c1cccc([N+](=O)[O-])c1", "note": "(stereo not drawn) [Cilnidipine, cilnidipine]", "values": [{"measurement": "% change VAS Raynauds", "setting": "Cilnidipine 20 mg (n = 3)", "result": "−49", "unit": "%"}, {"measurement": "% change in Alternative Disability Index", "setting": "Cilnidipine 20 mg (n = 3)", "result": "−42", "unit": "%"}, {"measurement": "% change in Standard Disability Index", "setting": "Cilnidipine 20 mg (n = 3)", "result": "−50", "unit": "%"}, {"measurement": "% change overall SSc Disease Severity", "setting": "Cilnidipine 20 mg (n = 3)", "result": "−63% (i.e., improvement)"}, {"measurement": "% improvement in Breathing (median)", "setting": "Cilnidipine 20 mg (n = 3)", "result": "67% (median)"}, {"measurement": "% improvement in VAS Digital Ulcers", "setting": "Cilnidipine 20 mg (n = 3)", "result": 35, "unit": "%"}, {"measurement": "Alternative disability index, % improvement", "setting": "Cilnidipine 20 mg (n = 3)", "result": 42, "unit": "% improvement"}, {"measurement": "Standard disability Index, % improvement", "setting": "Cilnidipine 20 mg (n = 3)", "result": 50, "unit": "% improvement"}, {"measurement": "VAS - Breathing problems, % improvement", "setting": "Cilnidipine 20 mg (n = 3)", "result": 75, "unit": "% improvement*"}, {"measurement": "VAS - Raynaud's, % improvement", "setting": "Cilnidipine 20 mg (n = 3)", "result": 55, "unit": "% improvement"}, {"measurement": "VAS Overall Disease Severity, % improvement", "setting": "Cilnidipine 20 mg (n = 3)", "result": 63, "unit": "% improvement"}, {"measurement": "% change in Pain (SHAQ)", "setting": "Cilnidipine 20 mg (n = 3)", "result": "−53", "unit": "%"}, {"measurement": "VAS- PAIN, % improvement", "setting": "Cilnidipine 20 mg (n = 3), baseline 2.17 on a 0-10 VAS", "result": 53, "unit": "% improvement*"}, {"measurement": "SHAQ overall disease severity, Change from Baseline, Max", "setting": "[1]", "result": 0.20}, {"measurement": "SHAQ overall disease severity, Change from Baseline, Mean (SD)", "setting": "[1]", "result": "−1.214 (0.7946)"}, {"measurement": "SHAQ overall disease severity, Change from Baseline, Median", "setting": "[1]", "result": "−1.500"}, {"measurement": "SHAQ overall disease severity, Change from Baseline, Min", "setting": "[1]", "result": "−1.90"}, {"measurement": "SHAQ overall disease severity, Change from Baseline, Q1", "setting": "[1]", "result": "−1.800"}, {"measurement": "SHAQ overall disease severity, Change from Baseline, Q3", "setting": "[1]", "result": "−0.400"}, {"measurement": "SHAQ overall disease severity, In-Clinic Visit (Day 12), Max", "setting": "[1]", "result": 5.20}, {"measurement": "SHAQ overall disease severity, In-Clinic Visit (Day 12), Mean (SD)", "setting": "[1]", "result": "1.486 (1.7743)"}, {"measurement": "SHAQ overall disease severity, In-Clinic Visit (Day 12), Median", "setting": "[1]", "result": 1.200}, {"measurement": "SHAQ overall disease severity, In-Clinic Visit (Day 12), Min", "setting": "[1]", "result": 0.00}, {"measurement": "SHAQ overall disease severity, In-Clinic Visit (Day 12), Q1", "setting": "[1]", "result": 0.200}, {"measurement": "SHAQ overall disease severity, In-Clinic Visit (Day 12), Q3", "setting": "[1]", "result": 1.900}, {"measurement": "SHAQ overall disease severity, Percent Change from Baseline, Max", "setting": "[2]", "result": "−26.8", "unit": "%"}, {"measurement": "SHAQ overall disease severity, Percent Change from Baseline, Mean (SD)", "setting": "[2]", "result": "−59.80 (25.642) %"}, {"measurement": "SHAQ overall disease severity, Percent Change from Baseline, Median", "setting": "[2]", "result": "−55.86", "unit": "%"}, {"measurement": "SHAQ overall disease severity, Percent Change from Baseline, Min", "setting": "[2]", "result": "−100.0", "unit": "%"}, {"measurement": "SHAQ overall disease severity, Percent Change from Baseline, Q1", "setting": "[2]", "result": "−76.19", "unit": "%"}, {"measurement": "SHAQ overall disease severity, Percent Change from Baseline, Q3", "setting": "[2]", "result": "−44.12", "unit": "%"}, {"measurement": "% change VAS Raynauds", "setting": "Pooled Cilnidipine (n = 7)", "result": "−17", "unit": "%"}, {"measurement": "% change in Alternative Disability Index", "setting": "Pooled Cilnidipine (n = 7)", "result": "−13", "unit": "%"}, {"measurement": "% change in Standard Disability Index", "setting": "Pooled Cilnidipine (n = 7)", "result": "−25", "unit": "%"}, {"measurement": "% change overall SSc Disease Severity", "setting": "Pooled Cilnidipine (n = 7)", "result": "−60% (i.e., improvement)"}, {"measurement": "% improvement in Breathing (median)", "setting": "Pooled Cilnidipine (n = 7)", "result": "41% (median)"}, {"measurement": "% improvement in VAS Digital Ulcers", "setting": "Pooled Cilnidipine (n = 7)", "result": 19, "unit": "%"}, {"measurement": "% change in Pain (SHAQ)", "setting": "Pooled Cilnidipine (n = 7)", "result": "−31", "unit": "%"}, {"measurement": "% from baseline, Intestinal Problems, mean", "setting": "Pooled cilnidipine", "result": "−32.4", "unit": "%"}, {"measurement": "% from baseline, Intestinal Problems, median", "setting": "Pooled cilnidipine", "result": "−44.1", "unit": "%"}, {"measurement": "% from baseline, VAS Breathing, mean", "setting": "Pooled cilnidipine", "result": "−8.2", "unit": "%"}, {"measurement": "% from baseline, VAS Breathing, median", "setting": "Pooled cilnidipine", "result": "−41.3", "unit": "%"}, {"measurement": "% from baseline, VAS Finger Ulcers, mean", "setting": "Pooled cilnidipine", "result": "−17.1", "unit": "%"}, {"measurement": "% from baseline, VAS Finger Ulcers, median", "setting": "Pooled cilnidipine", "result": "−50.9", "unit": "%"}, {"measurement": "% from baseline, VAS Overall Disease Severity, mean", "setting": "Pooled cilnidipine", "result": "−59.8", "unit": "%"}, {"measurement": "% from baseline, VAS Overall Disease Severity, median", "setting": "Pooled cilnidipine", "result": "−55.9", "unit": "%"}, {"measurement": "% from baseline, VAS Pain, mean", "setting": "Pooled cilnidipine", "result": "−31.2", "unit": "%"}, {"measurement": "% from baseline, VAS Pain, median", "setting": "Pooled cilnidipine", "result": "−45", "unit": "%"}, {"measurement": "% from baseline, VAS Raynaud's, mean", "setting": "Pooled cilnidipine", "result": "−18.6", "unit": "%"}, {"measurement": "% from baseline, VAS Raynaud's, median", "setting": "Pooled cilnidipine", "result": "−38.7", "unit": "%"}, {"measurement": "% from baseline, alternative disability, mean", "setting": "Pooled cilnidipine", "result": "−12.9", "unit": "%"}, {"measurement": "% from baseline, alternative disability, median", "setting": "Pooled cilnidipine", "result": "−22.2", "unit": "%"}, {"measurement": "% from baseline, standard disability, mean", "setting": "Pooled cilnidipine", "result": "−25", "unit": "%"}, {"measurement": "% from baseline, standard disability, median", "setting": "Pooled cilnidipine", "result": "−16.7", "unit": "%"}, {"measurement": "SHAQ Finger Ulcers, Change from Baseline, Max", "setting": "[3]", "result": 0.00}, {"measurement": "SHAQ Finger Ulcers, Change from Baseline, Mean (SD)", "setting": "[3]", "result": "−0.425 (0.5058)"}, {"measurement": "SHAQ Finger Ulcers, Change from Baseline, Median", "setting": "[3]", "result": "−0.350"}, {"measurement": "SHAQ Finger Ulcers, Change from Baseline, Min", "setting": "[3]", "result": "−1.00"}, {"measurement": "SHAQ Finger Ulcers, Change from Baseline, Q1", "setting": "[3]", "result": "−0.850"}, {"measurement": "SHAQ Finger Ulcers, Change from Baseline, Q3", "setting": "[3]", "result": 0.000}, {"measurement": "SHAQ Finger Ulcers, In Clinic Visit (Day 12), Max", "setting": "[3]", "result": 1.10}, {"measurement": "SHAQ Finger Ulcers, In Clinic Visit (Day 12), Mean (SD)", "setting": "[3]", "result": "0.275 (0.5500)"}, {"measurement": "SHAQ Finger Ulcers, In Clinic Visit (Day 12), Median", "setting": "[3]", "result": 0.000}, {"measurement": "SHAQ Finger Ulcers, In Clinic Visit (Day 12), Min", "setting": "[3]", "result": 0.00}, {"measurement": "SHAQ Finger Ulcers, In Clinic Visit (Day 12), Q1", "setting": "[3]", "result": 0.000}, {"measurement": "SHAQ Finger Ulcers, In Clinic Visit (Day 12), Q3", "setting": "[3]", "result": 0.550}, {"measurement": "SHAQ Finger Ulcers, Percent Change from Baseline, Max", "setting": "[3]", "result": "−38.9", "unit": "%"}, {"measurement": "SHAQ Finger Ulcers, Percent Change from Baseline, Mean (SD)", "setting": "[3]", "result": "−69.44 (43.212) %"}, {"measurement": "SHAQ Finger Ulcers, Percent Change from Baseline, Median", "setting": "[3]", "result": "−69.44", "unit": "%"}, {"measurement": "SHAQ Finger Ulcers, Percent Change from Baseline, Min", "setting": "[3]", "result": "−100.0", "unit": "%"}, {"measurement": "SHAQ Finger Ulcers, Percent Change from Baseline, Q1", "setting": "[3]", "result": "−100.00", "unit": "%"}, {"measurement": "SHAQ Finger Ulcers, Percent Change from Baseline, Q3", "setting": "[3]", "result": "−38.89", "unit": "%"}, {"measurement": "SHAQ Overall Change in Severity, Change from Baseline, Max", "setting": "[3]", "result": 0.20}, {"measurement": "SHAQ Overall Change in Severity, Change from Baseline, Mean (SD)", "setting": "[3]", "result": "−0.900 (0.9695)"}, {"measurement": "SHAQ Overall Change in Severity, Change from Baseline, Median", "setting": "[3]", "result": "−0.950"}, {"measurement": "SHAQ Overall Change in Severity, Change from Baseline, Min", "setting": "[3]", "result": "−1.90"}, {"measurement": "SHAQ Overall Change in Severity, Change from Baseline, Q1", "setting": "[3]", "result": "−1.700"}, {"measurement": "SHAQ Overall Change in Severity, Change from Baseline, Q3", "setting": "[3]", "result": "−0.100"}, {"measurement": "SHAQ Overall Change in Severity, In Clinic Visit (Day 12), Max", "setting": "[3]", "result": 5.20}, {"measurement": "SHAQ Overall Change in Severity, In Clinic Visit (Day 12), Mean (SD)", "setting": "[3]", "result": "1.825 (2.4061)"}, {"measurement": "SHAQ Overall Change in Severity, In Clinic Visit (Day 12), Median", "setting": "[3]", "result": 1.050}, {"measurement": "SHAQ Overall Change in Severity, In Clinic Visit (Day 12), Min", "setting": "[3]", "result": 0.00}, {"measurement": "SHAQ Overall Change in Severity, In Clinic Visit (Day 12), Q1", "setting": "[3]", "result": 0.100}, {"measurement": "SHAQ Overall Change in Severity, In Clinic Visit (Day 12), Q3", "setting": "[3]", "result": 3.550}]}
